How the values were obtained:
[1] = tested on: interleukin 2 (IL-2) secretion; test: anti-CD3/anti-CD28 antibody-induced IL-2 secretion in human PBMC (ELISA); format: cell-based; conditions: human PBMC stimulated with anti-CD3 and anti-CD28, 20 hours
Procedure: The extent to which test substance influence antibody-induced interleukin 2 (IL-2) secretion was investigated in the following test system. IL-2 represents a central cytokine which is produced and released by activated T cells. IL-2 synthesis in the T cells is regulated by a plurality of kinases. An inhibitory effect of substances on kinases leads inter alia to inhibition of IL-2 synthesis and inhibition of the T cell immune response. The cytokine determinations were carried out using an ELISA kit.
Peripheral blood mononuclear cells (PBMC) were isolated from heparinized human whole blood by gradient centrifugation using Histopaque 1077 (Sigma) at room temperature, and the erythrocytes were lyzed hypotonically and, after washing twice in PBS, taken up in cell culture medium (10% fetal inactivated calf serum in RPMI-1640+Glutamax-I [Gibco]).
The 96 well culture plates (Costar) were previously incubated with 100 μl of antibody solution in PBS 0.1 μg/ml in PBS [Gibco]) per well at 4° C. for 18 hours. The antibodies used were anti-CD3 and anti-CD28 monoclonal antibodies (PharMingen). After washing with PBS three times, the plates were charged with 200 μl of the cell suspension (40 000 cells/well). […]
Interleukin-2 was determined using an ELISA kit (Bioscience), and the absorption of the color change was analyzed in a SpectraMax 340 PC (wavelength 450 nm). […]

protein kinase C theta = target: T1, protein kinase C theta (Homo sapiens, UniProt Q04759); test: PKC-theta HTRF kinase assay; format: biochemical; conditions: recombinant PKC-theta, 10 μM ATP, read-out: Inhibition of PKC theta IC50
T1 construct: purchased ProQinase (Freiburg)
T1 sequence (Q04759 whole entry): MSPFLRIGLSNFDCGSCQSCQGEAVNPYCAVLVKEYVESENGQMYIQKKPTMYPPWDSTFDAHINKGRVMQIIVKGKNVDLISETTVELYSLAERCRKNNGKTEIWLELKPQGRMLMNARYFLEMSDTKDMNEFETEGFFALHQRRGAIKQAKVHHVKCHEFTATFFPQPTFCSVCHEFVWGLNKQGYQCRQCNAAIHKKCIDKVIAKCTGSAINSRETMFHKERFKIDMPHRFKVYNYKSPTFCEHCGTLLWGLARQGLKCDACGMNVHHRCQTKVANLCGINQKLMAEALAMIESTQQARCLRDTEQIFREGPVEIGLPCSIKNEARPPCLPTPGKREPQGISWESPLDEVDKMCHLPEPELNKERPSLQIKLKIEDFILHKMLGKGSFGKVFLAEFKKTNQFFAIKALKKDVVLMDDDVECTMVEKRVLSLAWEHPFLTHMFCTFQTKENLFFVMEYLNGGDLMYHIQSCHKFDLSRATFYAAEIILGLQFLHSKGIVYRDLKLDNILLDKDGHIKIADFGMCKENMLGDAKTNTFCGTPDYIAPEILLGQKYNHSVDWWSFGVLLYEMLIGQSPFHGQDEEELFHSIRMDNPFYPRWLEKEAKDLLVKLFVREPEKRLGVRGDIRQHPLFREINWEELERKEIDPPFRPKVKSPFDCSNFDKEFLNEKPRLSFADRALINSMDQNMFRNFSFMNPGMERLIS
Procedure: Inhibition of the enzymic activity of the protein kinase C theta was determined with the aid of the PKC-theta HTRF assay.
Recombinant PKC-theta protein was purchased from ProQinase (Freiburg). The kinase substrate used was the biotinylated peptide having the amino acid sequence biotin-RFARKGSLRQKNVHEVK, which was purchased from Biosynthan (Berlin).
PKC-theta [0.7 nM in the assay mixture, assay volume 5 μl] was incubated at 22° C. for 15 min in the presence of various concentrations of test substances (0 μM, and 10 measurement points within the range 0.001-20 μM in duplicates) in assay buffer [50 mM Hepes/NaOH pH 7.4, 1.0 mM MnCl2, 10.0 mM MgCl2, 1.0 mM dithiothreitol, 0.1 mM sodium orthovanadate, 10 μM adenosine triphosphate (ATP), 0.5 μM substrate peptide, 0.1 mg/ml phosphatidyl serine, 0.01 mg/ml diacylglycerol, 1% (v/v) dimethyl sulfoxide]. The reaction was stopped by adding 5 μl of an EDTA/detection solution [50 mM Hepes/NaOH pH 7.4, 400 mM KF, 40 mM EDTA, 0.1% bovine serum albumin, 100 nM streptavidin-XLlent (from Cisbio, #611SAXLB), 1.8 nM anti-phospho PKC substrate crypate conjugate antibody (CisBio: #61P03KAZ)]. […]

IC50 ([1]; IL-2 ELISA, read-out: IC50 (concentration for 50% inhibition of IL-2)): 1300 nM
IC50 (protein kinase C theta): 4100 nM
SMILES: Clc1cccc(-c2cnc3ccc(OCCCN4CCOCC4)nn23)c1 [Example 1, 3-(3-Chlorophenyl)-6-(3-morpholin-4-ylpropoxy)imidazo[1,2-b]pyridazine]
inhibition at 10 µM ([1]; 10 μM): > 95%

From patent US8653076B2, “Oxo-substituted imidazo[1,2B]pyridazines, their preparation and use as pharmaceuticals” (Bayer Intellectual Property GmbH, priority 2006, dated 2014)
